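Method: 48-hour compound exposure of cells in 96-well plates, five concentrations, linear interpolation of endpoints. GI50 marks 50% less growth.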 Activity calls are given as the source filed them. Rule as the data show it: active = GI50 up to about 1.1 µM and inactive = higher. Bounds are passed on as bounds.

Test systems include NCI-H460; RXF 393; OVCAR-5; DMS-114; SK-OV-3; HOP-92; UACC-257; TK-10; SK-MEL-5; IGROV-1; NCI-H23; CCRF-CEM; NCI-H522; SF-268; KM12; A498; OVCAR-3; MCF7; HOP-62; HCC 2998.
Test in all cases: NCI-60 cell line screen, 48 h

On to `COc1cc(C2C(C(=O)O)=C(CO)Oc3cc4c(cc32)OCO4)cc(OC)c1OC` (stereo not drawn), for which the GI50 in the assay with NCI-H460 was > 100 µM (inactive); with RXF 393, 93.3 µM (inactive); in the assay with OVCAR-5 it was > 100 µM (inactive); in the assay on DMS-114 it was > 100 µM (inactive); with SK-OV-3, > 100 µM (inactive); in the assay with HOP-92, 35.6 µM (inactive). Besides, the GI50 in the assay on UACC-257, in the assay on TK-10, in the assay on SK-MEL-5, with IGROV-1, with NCI-H23 and in the assay on CCRF-CEM was > 100 µM (inactive) throughout.

Turning to `COc1ccc2nc3ccc(OC)cc3c([S+]([O-])CCCl)c2c1` (stereo not drawn), the GI50 with NCI-H522 is 1.67 µM (inactive); with SF-268, 6.76 µM (inactive); in the assay on NCI-H460 it was 26.4 µM (inactive); in the assay on RXF 393, 3.59 µM (inactive); with OVCAR-5 it was 14.9 µM (inactive); with SK-OV-3, 20.7 µM (inactive). Besides, the GI50 in the assay on KM12 is 16.6 µM (inactive); with HOP-92 it was 2.49 µM (inactive); in the assay on UACC-257, 2.21 µM (inactive); in the assay on TK-10, 3.81 µM (inactive); in the assay on A498, 16.8 µM (inactive); with SK-MEL-5, 14.9 µM (inactive). In addition, the GI50 is 2.2 µM (inactive) in the assay on OVCAR-3; 2.48 µM (inactive) in the assay with IGROV-1; 2.31 µM (inactive) in the assay on MCF7; 18.1 µM (inactive) with HOP-62; 23.2 µM (inactive) in the assay on HCC 2998; 4.26 µM (inactive) in the assay on NCI-H23. Besides, in the assay on CCRF-CEM, the GI50 is 2.42 µM (inactive).

As to `C[S+](C)([O-])=Nn1c(=O)n2n(c1=O)[C@H]1CC[C@@H]2C1`, the GI50 in the assay on NCI-H522, in the assay with SF-268, in the assay with NCI-H460, in the assay with RXF 393, in the assay with OVCAR-5 and in the assay on SK-OV-3 was > 100 µM (inactive) in each case. The GI50 in the assay with KM12, in the assay on HOP-92, in the assay with UACC-257, in the assay with TK-10, with A498 and in the assay on SK-MEL-5 was > 100 µM (inactive) throughout. Moreover, the GI50 with OVCAR-3, with IGROV-1, in the assay with MCF7, in the assay with HOP-62, with NCI-H23 and in the assay on CCRF-CEM was > 100 µM (inactive) in each case.

On to `CC12Nc3ccccc3C1=C(c1ccccc1)CC1C(=O)OC(=O)C12` (stereo not drawn), for which the GI50 in the assay on NCI-H522, with SF-268, with NCI-H460, in the assay with RXF 393, with OVCAR-5 and in the assay on DMS-114 was > 100 µM (inactive) each time. The GI50 in the assay with KM12, in the assay on HOP-92, in the assay with UACC-257, with TK-10, in the assay with SK-MEL-5 and with OVCAR-3 was > 100 µM (inactive) in each case. In addition, the GI50 with IGROV-1, in the assay with HOP-62, with HCC 2998, in the assay on NCI-H23 and in the assay on CCRF-CEM was > 100 µM (inactive) in each case.

For `CN(C)c1ccc(N2C(=S)SC(=N\c3ccccc3)/C2=N/c2ccccc2)cc1`, the GI50 in the assay with NCI-H522 was > 100 µM (inactive); in the assay on NCI-H460 it was > 100 µM (inactive); in the assay on RXF 393, 3.43 µM (inactive); with OVCAR-5 it was > 100 µM (inactive); in the assay with SK-OV-3, > 100 µM (inactive); in the assay on KM12, > 100 µM (inactive). Besides, the GI50 in the assay on A498, with SK-MEL-5, in the assay on OVCAR-3, in the assay with IGROV-1, with MCF7 and in the assay on HOP-62 was > 100 µM (inactive) throughout. Besides, the GI50 in the assay on HCC 2998, in the assay with NCI-H23 and with CCRF-CEM was > 100 µM (inactive) each time.

Take `CC(NC(C#N)CC12CC3CC(CC(C3)C1)C2)c1ccccc1` (stereo not drawn): the GI50 in the assay on NCI-H522 was > 100 µM (inactive); with SF-268, 47.4 µM (inactive); in the assay on NCI-H460, 26.5 µM (inactive); with OVCAR-5, 63.8 µM (inactive); with SK-OV-3, 59.6 µM (inactive); in the assay with HOP-92, 0.753 µM (active). For the same molecule, the GI50 is > 100 µM (inactive) with UACC-257; > 100 µM (inactive) with TK-10; > 100 µM (inactive) in the assay with A498; > 100 µM (inactive) in the assay with SK-MEL-5; 13.6 µM (inactive) with OVCAR-3; 32.4 µM (inactive) in the assay on IGROV-1. Further, the GI50 is 48.9 µM (inactive) with MCF7, > 100 µM (inactive) in the assay with HOP-62, > 100 µM (inactive) with HCC 2998 and 20.7 µM (inactive) in the assay on CCRF-CEM.

On to `CCC1(c2ccccc2)C(=O)N=C(c2ccccc2)N1CCc1ccccc1` (stereo not drawn), for which the GI50 in the assay with NCI-H522, with SF-268, with RXF 393, with OVCAR-5, in the assay on SK-OV-3 and in the assay with KM12 was > 100 µM (inactive) in each case. Also, the GI50 in the assay on HOP-92, in the assay with UACC-257, in the assay on TK-10, in the assay with A498, with SK-MEL-5 and in the assay on OVCAR-3 was > 100 µM (inactive) in each case. The GI50 in the assay on IGROV-1, in the assay on MCF7, with HOP-62, in the assay with HCC 2998, with NCI-H23 and with CCRF-CEM was > 100 µM (inactive) each time.

As for `COc1ccc2c(c1)c1cc(OC)ccc1n2CCCCOc1ccc(-c2c3ccccc3c(-c3ccc(OCCCCn4c5ccc(OC)cc5c5cc(OC)ccc54)cc3)c3ccccc23)cc1`, the GI50 in the assay on NCI-H522, in the assay with SF-268, in the assay with OVCAR-5, with DMS-114, with SK-OV-3 and with KM12 was > 100 µM (inactive) each time. Also, the GI50 with HOP-92, in the assay on TK-10, in the assay with OVCAR-3, with IGROV-1, in the assay with HOP-62 and in the assay with HCC 2998 was > 100 µM (inactive) throughout. The GI50 with CCRF-CEM is > 100 µM (inactive).

For the molecule `CC(C)c1ccccc1SCc1cc(=O)cc(CSc2ccccc2C(C)C)o1`, the GI50 in the assay on SF-268 is 16.8 µM (inactive); in the assay with NCI-H460, 21.1 µM (inactive); with RXF 393, 31 µM (inactive); in the assay with OVCAR-5 it was 15.3 µM (inactive); in the assay on SK-OV-3, 22.1 µM (inactive); in the assay with KM12 it was 15.7 µM (inactive). The GI50 with HOP-92 was 15.2 µM (inactive); in the assay with UACC-257, 20.5 µM (inactive); with TK-10 it was 17.9 µM (inactive); with A498 it was 20.3 µM (inactive); in the assay on SK-MEL-5, 24.1 µM (inactive); with OVCAR-3 it was 17.9 µM (inactive). The GI50 with IGROV-1 was 14.5 µM (inactive); in the assay with MCF7 it was 18.2 µM (inactive); with HOP-62, 20.7 µM (inactive); with HCC 2998 it was 30.3 µM (inactive); with NCI-H23 it was 37.6 µM (inactive); in the assay with CCRF-CEM, 26.9 µM (inactive).

As to `CCOC(=O)Oc1ccc(C(CNC(C)C)OC(=O)OCC)cc1OC(=O)OCC` (stereo not drawn), the GI50 is 49.9 µM (inactive) in the assay on NCI-H522; > 100 µM (inactive) in the assay on SF-268; > 100 µM (inactive) in the assay on NCI-H460; 11.5 µM (inactive) in the assay on RXF 393; > 100 µM (inactive) with OVCAR-5; > 100 µM (inactive) in the assay with SK-OV-3. The GI50 in the assay with KM12, in the assay with HOP-92, in the assay on UACC-257, in the assay with TK-10, with A498 and in the assay with SK-MEL-5 was > 100 µM (inactive) each time. The GI50 in the assay with OVCAR-3, in the assay with IGROV-1, with MCF7, with HOP-62, with HCC 2998 and in the assay on NCI-H23 was > 100 µM (inactive) throughout. Besides, the GI50 in the assay on CCRF-CEM is 48.1 µM (inactive).

As for `N/N=C1\C(=O)N(c2ccc(Cl)c(Cl)c2)C(=O)C1C(=O)Nc1ccc(Cl)c(Cl)c1` (stereo not drawn), the GI50 in the assay on NCI-H522 was 50.9 µM (inactive); with SF-268 it was 55.1 µM (inactive); with NCI-H460, 54.5 µM (inactive); with RXF 393, > 100 µM (inactive); with OVCAR-5 it was 88.7 µM (inactive); with DMS-114, 57.5 µM (inactive). In addition, the GI50 with KM12 was 50.7 µM (inactive); with HOP-92 it was 48.1 µM (inactive); with UACC-257, 71 µM (inactive); with TK-10, > 100 µM (inactive); with A498, 44.3 µM (inactive); in the assay on SK-MEL-5, 17.5 µM (inactive). Further, the GI50 was 49.9 µM (inactive) with OVCAR-3; 73.8 µM (inactive) in the assay on IGROV-1; 41.4 µM (inactive) with HOP-62; 62.4 µM (inactive) with HCC 2998; 40.6 µM (inactive) in the assay on NCI-H23; 34.4 µM (inactive) with CCRF-CEM.

Regarding `COC(=O)C1=C(OC(=O)/C=C/c2ccc(Cl)cc2)C(C(=O)OC)[C@@]2(O)[C@@H](C(=O)OC)[C@H](C)C[C@@H]1[C@@H]2C(=O)OC` (stereo partly drawn), the GI50 in the assay on NCI-H522 is 6.81 µM (inactive); in the assay on SF-268, 16.7 µM (inactive); with NCI-H460, 27.2 µM (inactive); in the assay with RXF 393, 27.2 µM (inactive); in the assay with OVCAR-5, 28.4 µM (inactive); with SK-OV-3 it was 24.6 µM (inactive). In addition, the GI50 with KM12 was 34.1 µM (inactive); in the assay with UACC-257, 45.1 µM (inactive); in the assay with TK-10 it was 62.8 µM (inactive); with SK-MEL-5 it was 17.2 µM (inactive); with OVCAR-3, 30.8 µM (inactive); with IGROV-1, 3.94 µM (inactive). Moreover, the GI50 in the assay with HOP-62 is 28.8 µM (inactive); with NCI-H23 it was 19.5 µM (inactive); in the assay with CCRF-CEM it was 13.2 µM (inactive).

Values taken from ChEMBL document CHEMBL1201862, “PubChem BioAssay data set” (2004).
